Active and inactive are the calls of the source.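 How the source made its calls: active means compounds giving half or more protection of infected cells from virus-caused growth loss, again on retest; inactive means the rest.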
Test system: CEM cells HIV-1 protection, formazan growth assay
Assay: NCI AIDS Antiviral Assay
Conditions: for IC50: measured here: growth of uninfected CEM cells
Method in brief: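 Steps: treat uninfected and HIV-1-infected human CEM cells at five drug levels; quantify growth by soluble formazan; retest any compound reaching 50% protection; classify actives from the retest.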

## CCCc1cc(=O)oc2c3c(cc(OC)c12)O[C@H](C)C(C)C3=O (stereo partly specified)
  EC50: > 200 µM
  IC50: 58.9 µM

## COc1cccc(NC(=O)CSc2nnc(-c3ccc(NC(C)=O)cc3)o2)c1
  EC50: > 64.6 µM
  IC50: > 64.6 µM

## CSc1n[nH]c2c1c(C)nn2-c1ccccc1
  EC50: > 200 µM
  IC50: 95.5 µM

## CCCC[N+](CCCC)(CCCC)C1=C([O-])C(F)(F)C1=O
  EC50: > 200 µM
  IC50: > 200 µM

## Cc1c(C(=O)C/C(=N/NC(=O)C[N+](C)(C)C)C(=O)Nc2ccc(Cl)cc2)[n+](=O)c2ccccc2n1O
  EC50: > 9.12 µM
  IC50: > 9.12 µM

## O=c1oc2ccccc2c(O)c1/C=N\c1nc(-c2ccccc2)cs1
  EC50: > 200 µM
  IC50: 3.39 µM

## CNc1nc(N(C)C)nc(N(C)C)n1
  EC50: > 537 µM
  IC50: 407 µM

## CCOC(=O)CC(SP1(=S)OCC2(CC=CCC2)CO1)C(=O)OCC (stereo unspecified)
  EC50: > 200 µM
  IC50: 93.3 µM

## COc1ccc(/C=C2\N=C(SC)N(CN3CCOCC3)C2=O)cc1
  EC50: > 200 µM
  IC50: 29.5 µM

## CC1SC2=NC3=C(c4ccccc4C3=O)C(c3ccccc3Cl)N2C1=O (stereo unspecified)
  EC50: > 35.5 µM
  IC50: > 35.5 µM

## O=C1c2cn[nH]c2C(c2ccccc2)N1c1ccccc1 (stereo unspecified)
  outcome: inactive

## O=C(Cc1csc2[n+]1C(=O)/C(=C/c1ccc(Cl)cc1)S2)Nc1ccccc1
  EC50: > 200 µM
  IC50: 30.2 µM

## COc1cc(N(C)C)ccc1/C=C\c1ccnc2ccccc12
  EC50: > 200 µM
  IC50: 13.5 µM

## COc1ccc2c3c1OC1CC(O)C=CC31CCN(C)C2 (stereo unspecified)
  EC50: > 200 µM
  IC50: > 200 µM

## COc1ccc(/C=C2\C(=O)N(C(=O)c3ccc(NC(C)=O)cc3)N=C2C)cc1OC
  EC50: > 9.33 µM
  IC50: > 9.33 µM

## O=C(NCc1ccncc1)C1COc2cc(-c3cc(=O)c4ccccc4o3)ccc2O1 (stereo unspecified)
  outcome: inactive

## O=[N+]([O-])c1cc(C(F)(F)F)cc2c1SC1=Nc3ccccc3CN12
  outcome: inactive

## O=P(O)(O)c1ccc2c(c1)OCCOCCOCCOCCO2
  EC50: > 200 µM
  IC50: > 200 µM

## CC(=O)Nc1ccc(C=Nc2ccc(SSc3ccc(N=Cc4ccc(NC(C)=O)cc4)cc3)cc2)cc1
  EC50: > 200 µM
  IC50: 23.4 µM

## O=C(CC1(O)C(=O)Nc2c(Cl)cc(Cl)cc21)c1ccc(Cl)cc1 (stereo unspecified)
  outcome: inactive

## CCCCCCCCOCCS(=O)(=O)O
  EC50: > 200 µM
  IC50: > 200 µM

## CCOc1ccccc1NC(=O)CC1C(=O)Nc2ccccc2S1=O (stereo unspecified)
  EC50: > 38 µM
  IC50: > 38 µM

## CC(C)[N+](C)(C)CC(O)COc1cccc2ccccc12 (stereo unspecified)
  EC50: > 200 µM
  IC50: > 200 µM

## O=C(NCCCl)N(O)C(=O)Nc1ccccc1
  EC50: > 200 µM
  IC50: 126 µM

## CC(C)(O)/C=C/C(=O)[C@](C)(O)[C@H]1[C@H](O)C[C@@]2(C)[C@@H]3CC=C4[C@@H](C=C(O)C(=O)C4(C)C)[C@]3(C)C(=O)C[C@]12C
  EC50: > 0.2 µM
  IC50: 0.0324 µM

## N#Cc1c(N2CCCC2)nsc1Nc1ccccc1
  EC50: > 200 µM
  IC50: > 200 µM

## CCOC(=O)/C(=C\c1ccc(C#N)cc1)[Se]c1ccccc1
  EC50: > 52.5 µM
  IC50: > 52.5 µM

## CC[C@H]1CN2CCc3cc(OC)c(OC)cc3[C@@H]2C[C@@H]1C[C@H]1NCCc2cc(OC)c(OC)cc21
  outcome: inactive

## COc1ccc2cc(C(=O)NCCc3ccccc3)ccc2c1OC
  EC50: > 200 µM
  IC50: > 200 µM

## O=C1/C(=C/c2ccc(O)cc2)CCc2ccc([N+](=O)[O-])cc21
  EC50: > 200 µM
  IC50: 81.3 µM

## [N-]=[N+]=NC1=C(c2ccccc2)C(=O)c2cccc3cccc1c23
  EC50: > 200 µM
  IC50: 7.76 µM

## COc1c(Br)cc(Br)c(OC)c1-c1ccc[nH]1
  EC50: > 38 µM
  IC50: > 38 µM

## CCOC(=O)/C(=C\c1ccccc1)[Se]c1ccccc1
  EC50: > 56.2 µM
  IC50: > 56.2 µM

## COc1ccc(N=C2S/C(=N\C(=Nc3ccccc3)SCc3ccccc3)N(c3ccccc3)C2=Nc2ccc(OC)cc2)cc1
  EC50: > 200 µM
  IC50: 120 µM

## O=C1NC(=O)/C(=C/c2ccc(F)cc2)N1
  EC50: > 200 µM
  IC50: 191 µM

## COc1cccc(C2C(C(=O)Nc3cc(=O)n(C)c(=O)n3C)=C(C)NC(C)=C2C(=O)Nc2cc(=O)n(C)c(=O)n2C)c1O
  EC50: > 219 µM
  IC50: 74.1 µM

## N=C(N)SCCC(=O)CCSC(=N)N
  EC50: > 85.1 µM
  IC50: 63.1 µM

## c1ccc(CCN(Cc2nc3ccccc3[nH]2)Cc2nc3ccccc3[nH]2)cc1
  EC50: > 200 µM
  IC50: 10.5 µM

## COc1cc(C2c3cc4c(cc3OC(N3CCOCC3)C2C)OCO4)cc(OC)c1O (stereo unspecified)
  EC50: > 200 µM
  IC50: 8.51 µM

## CCCCCCC1N(Cc2ccc(Cl)cc2)CCCN1Cc1ccc(Cl)cc1
  EC50: > 200 µM
  IC50: 12 µM

## CC(=O)c1c(O)c2ccc(Cl)cc2[nH]c1=O
  EC50: > 200 µM
  IC50: 33.9 µM

## Cc1cc(S(=O)(=O)Nc2n[nH]c(Nc3ccccc3)n2)c(SSc2cc(Cl)c(C)cc2S(=O)(=O)Nc2n[nH]c(Nc3ccccc3)n2)cc1Cl
  EC50: 83.2 µM
  IC50: 95.5 µM

## COc1cccc2c(Nc3ccc(S(=O)(=O)Nc4ncccn4)cc3)c3ccc([N+](=O)[O-])cc3nc12
  EC50: > 100 µM
  IC50: > 100 µM

## Nc1nc(Cl)cc(NC23CC4CC(CC(C4)C2)C3)n1
  EC50: > 200 µM
  IC50: > 200 µM

## Oc1cccc(/C=C/c2ccncc2)c1
  EC50: > 36.3 µM
  IC50: > 36.3 µM

## CN1C(=O)N/C(=C\c2ccc(S(=O)(=O)N/N=C\C(O)C(O)C(O)CO)cc2)C1=O (stereo unspecified)
  EC50: > 200 µM
  IC50: > 200 µM

## O=C(CC1OC(O)C(Cl)=C1Cl)c1cccnc1 (stereo unspecified)
  EC50: 24.5 µM
  IC50: 501 µM

## Oc1cccc2ccc(Br)nc12
  EC50: > 200 µM
  IC50: 178 µM

## O=C(O)Cc1ccc(-c2cn3c(n2)sc2ccccc23)cc1
  EC50: > 200 µM
  IC50: > 200 µM

## CC(=O)c1c(N=[N+]=[N-])c2cccc3c2n(c1=O)CCC3
  EC50: > 200 µM
  IC50: 30.9 µM

## CN1C/C(=C\c2ccc(Cl)cc2)C(=O)/C(=C/c2ccc(Cl)cc2)C1
  EC50: > 200 µM
  IC50: 0.417 µM

## Cn1c2ccccc2c(=O)c2c(O)cc3c(c21)N=CC(C)(C)O3
  outcome: inactive

## COP(=O)(OC)C(N)Cc1c[nH]c2ccccc12 (stereo unspecified)
  EC50: > 200 µM
  IC50: > 200 µM

## O=C1CS(=O)(=O)C(c2ccccc2)N1N1C(=O)CS(=O)(=O)C1c1ccccc1 (stereo unspecified)
  EC50: > 200 µM
  IC50: > 200 µM

## O=C(NCCCl)c1cc(C(F)(F)F)cc(C(F)(F)F)c1
  outcome: inactive

## COC(=O)C(C(=O)C(=O)Nc1ccc(C)cc1C)c1csc(-n2nc(-c3ccccc3)cc2-c2ccccc2)n1 (stereo unspecified)
  EC50: > 158 µM
  IC50: 81.3 µM

## C/C=C/C(C#N)O[Si](C)(C)C (stereo unspecified)
  outcome: inactive

## N#Cc1cscc1C#N
  EC50: > 200 µM
  IC50: > 200 µM

## Nc1ccc2c(c1)C(=O)N1CCC[C@H]1C(=O)N2
  EC50: > 200 µM
  IC50: > 200 µM

## O=C(/C(=N/N(C(=O)c1ccccc1)c1ccccc1)c1ccccc1)c1ccccc1
  outcome: inactive

## COC(=O)c1sc(=NC(=S)N2CCCCC2)sc1C(=O)OC
  outcome: inactive

## CC1=C(C(=O)Nc2c(C)cccc2C)C(c2ccc3c(c2)OCO3)C(C(=O)Nc2c(C)cccc2C)=C(C)N1
  EC50: > 25.7 µM
  IC50: > 25.7 µM

## Cn1c(=O)c2c(ncn2CCCCOc2ccc3c(c2)[n+]([O-])nc(N)[n+]3[O-])n(C)c1=O
  EC50: > 200 µM
  IC50: 23.4 µM

## O=C1CCC(c2ccccc2)=NN1c1nc2ccccc2s1
  outcome: inactive

## CC(=O)[O-].COc1cccc(/C=N\[N-]C(=O)c2ccncc2)c1.[Co+2].[OH3+].[OH3+].c1ccncc1
  EC50: > 100 µM
  IC50: 57.5 µM

## CCOc1ccc2nc3nc(=O)[nH]c(C)c3c(NCCCN(CC)CC)c2c1
  EC50: > 200 µM
  IC50: > 200 µM

## Clc1ccc(Nc2nc(Cl)c3[nH]cnc3n2)cc1Cl
  EC50: > 200 µM
  IC50: 63.1 µM

## NCCN.NCCN.O=C([O-])[O-].O=C([O-])[O-].[Co+3]
  outcome: inactive

## O=C1C=C(C23CC4CC(CC(C4)C2)C3)N2CCCc3cccc(c32)N1
  EC50: > 100 µM
  IC50: > 100 µM

## CC(=O)ON(C)C1CC(=O)OC1CO[Si](C)(C)C(C)(C)C (stereo unspecified)
  EC50: > 200 µM
  IC50: 93.3 µM

## CN(C)c1ccc(N=C2C=CC(=C(C#N)C#N)c3ccccc32)cc1
  outcome: inactive

## CC(=O)[C@@]1(O)CC[C@H]2[C@@H]3C[C@H](C)C4=CC(=O)C=C[C@]4(C)[C@@]3(F)[C@@H](O)C[C@@]21C
  outcome: inactive

## Nc1nc2c(ncn2COCCO)c(=O)[nH]1
  EC50: > 794 µM
  IC50: > 794 µM

## Cc1cc2c(C)cc3c(c2oc1=O)[C@@H](OC(=O)C12CCC(C)(C(=O)O1)C2(C)C)[C@@H](OC(=O)C12CCC(C)(C(=O)O1)C2(C)C)C(C)(C)O3 (stereo partly specified)
  EC50: 0.692 µM
  IC50: 6.92 µM

## CN=c1sc2nc(C#N)c(C#N)nc2n1C
  EC50: > 200 µM
  IC50: 10.2 µM

## CC1=C[C@H]2O[C@H]3C[C@H]4OC(=O)/C=C\C=C\C(=O)OCC[C@@H](C)C(O)C(=O)OC[C@@]2(CC1)[C@@]4(C)[C@]31CO1 (stereo partly specified)
  EC50: > 0.363 µM
  IC50: 0.0112 µM

## COc1ccc(Br)c(CCCCC(=O)O)c1
  outcome: inactive

## COC(=O)C1Cc2c([nH]c3ccccc23)C=N1 (stereo unspecified)
  outcome: inactive

## CCOC(=O)Nc1cc2c(c(N)n1)N=C(c1ccccc1)CN2
  EC50: > 0.17 µM
  IC50: 0.0316 µM

## CCOCC(=O)N[C@H]1CCc2cc(OC)c(OC)c(OC)c2-c2ccc(OC)c(=O)cc21
  EC50: > 2 µM
  IC50: 0.00347 µM

## Nc1c(N=O)c(=O)n(Cc2ccccc2)c(=O)n1Cc1ccccc1
  EC50: > 200 µM
  IC50: 11.7 µM

## O=[N+]([O-])c1ccc(N2N=C(c3ccc4ccccc4c3O)CC2c2ccc(Cl)cc2Cl)c([N+](=O)[O-])c1 (stereo unspecified)
  EC50: > 200 µM
  IC50: 42.7 µM

## O=C1OC(=O)C2C1CC1C(=O)OC(=O)C12 (stereo unspecified)
  EC50: > 1200 µM
  IC50: > 1200 µM

## c1ccc2c(c1)ncn1nnnc21
  EC50: > 955 µM
  IC50: 501 µM

## O=C1CC(c2[nH]nc3ccccc23)C(=O)N1c1ccccc1 (stereo unspecified)
  outcome: inactive

## O=C1CCCSCCCC(=O)CCCSCCC1
  EC50: > 34.7 µM
  IC50: > 34.7 µM

## COC(=O)[C@H]1ON2O[C@@H](O[C@H]3CCCC[C@@H]3C(C)(C)c3ccccc3)C[C@@H]3CC[C@H]1[C@@]32C
  EC50: > 200 µM
  IC50: > 200 µM

## NC1CCC[C@@H](O)[C@H]1O (stereo partly specified)
  EC50: > 200 µM
  IC50: > 200 µM

## Fc1ccc2nncc(SCc3ccc(Cl)cc3)c2c1
  EC50: > 87.1 µM
  IC50: > 87.1 µM
